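Dose response: 5 concentrations. Exposure: 48 h. Format: 96-well plates. Endpoint: linear interpolation; highest concentration if not reached. GI50 marks 50% less growth.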 The source made the active and inactive calls. Rule as the data show it: active = GI50 up to about 1.1 µM and inactive = higher.
What was measured:
Test in all cases: NCI tumour cell line growth inhibition, 48 h
UACC-257 = test system: UACC-257
SK-MEL-2 = test system: SK-MEL-2
OVCAR-5 = test system: OVCAR-5
EKVX = test system: EKVX
NCI/ADR-RES = test system: NCI/ADR-RES
PC-3 = test system: PC-3
Hs-578T = test system: Hs-578T
MDA-MB-231 = test system: MDA-MB-231
MDA-MB-435 = test system: MDA-MB-435
A549 = test system: A549
HT-29 = test system: HT-29
NCI-H226 = test system: NCI-H226
RXF 393 = test system: RXF 393
NCI-H23 = test system: NCI-H23
HCC 2998 = test system: HCC 2998
MOLT-4 = test system: MOLT-4
K562 = test system: K562
CCRF-CEM = test system: CCRF-CEM
MDA-N = test system: MDA-N
OVCAR-3 = test system: OVCAR-3

Row | Compound | GI50 (UACC-257) | GI50 (SK-MEL-2) | GI50 (OVCAR-5) | GI50 (EKVX) | GI50 (NCI/ADR-RES) | GI50 (PC-3) | GI50 (Hs-578T) | GI50 (MDA-MB-231) | GI50 (MDA-MB-435) | GI50 (A549) | GI50 (HT-29) | GI50 (NCI-H226) | GI50 (RXF 393) | GI50 (NCI-H23) | GI50 (HCC 2998) | GI50 (MOLT-4) | GI50 (K562) | GI50 (CCRF-CEM) | GI50 (MDA-N) | GI50 (OVCAR-3)
1 | COCN1C(=O)[C@@H]2CCCN2C(=O)c2cc([N+](=O)[O-])ccc21 | > 100 µM (inactive) | 64.1 µM (inactive) | 52.7 µM (inactive) | > 100 µM (inactive) | > 100 µM (inactive) | 36.3 µM (inactive) | > 100 µM (inactive) | 61.1 µM (inactive) | 66.2 µM (inactive) | 88.3 µM (inactive) | 71.9 µM (inactive) | 2.21 µM (inactive) | 19 µM (inactive) | 86.7 µM (inactive) |  |  |  |  |  | 
2 | O=c1cc(N2CCCC2)[nH]c(=O)n1Cc1ccccc1 | > 100 µM (inactive) | > 100 µM (inactive) | > 100 µM (inactive) | > 100 µM (inactive) | > 100 µM (inactive) | > 100 µM (inactive) |  | > 100 µM (inactive) | > 100 µM (inactive) | > 100 µM (inactive) | > 100 µM (inactive) | 55.3 µM (inactive) |  | > 100 µM (inactive) | 8.55 µM (inactive) | > 100 µM (inactive) | > 100 µM (inactive) | > 100 µM (inactive) |  | 
3 | COc1cc(Br)cc2cc(C3=CSC4=NCCN34)c(=O)oc12 | 25.3 µM (inactive) | 20.3 µM (inactive) | 23.3 µM (inactive) | 17.7 µM (inactive) | 65.9 µM (inactive) | 18.3 µM (inactive) |  | 19.6 µM (inactive) | 17.8 µM (inactive) | 21.3 µM (inactive) | 19.1 µM (inactive) |  | 17.5 µM (inactive) | 20.1 µM (inactive) |  | 20 µM (inactive) | 26.5 µM (inactive) | 25.8 µM (inactive) | 18.5 µM (inactive) | 16.8 µM (inactive)
4 | CCCCc1ccc2[n+](c1)C(C(=O)OCC)=PC2 (stereo unspecified) | > 100 µM (inactive) |  | > 100 µM (inactive) | > 100 µM (inactive) |  | > 100 µM (inactive) | 66.7 µM (inactive) |  | > 100 µM (inactive) | > 100 µM (inactive) | 42.8 µM (inactive) |  | 31.9 µM (inactive) | 86.1 µM (inactive) | > 100 µM (inactive) | 37.5 µM (inactive) |  | 42.4 µM (inactive) | 56.9 µM (inactive) | > 100 µM (inactive)
5 | Nc1ccc2nc(-c3cccc(Cl)c3)cc(O)c2c1 | > 100 µM (inactive) |  | > 100 µM (inactive) | 42.6 µM (inactive) | 3.56 µM (inactive) | 2.47 µM (inactive) | 6.79 µM (inactive) | 26.5 µM (inactive) | 0.738 µM (active) | 6.15 µM (inactive) | 3.41 µM (inactive) |  |  | 5.79 µM (inactive) | 6.73 µM (inactive) | 3.55 µM (inactive) |  | 2.14 µM (inactive) |  | 
